Measured values taken from US10781183B2, “Small molecule inducers of reactive oxygen species and inhibitors of mitochondrial activity” (The Regents of the University of Michigan, priority 2016, dated 2020).

System: mtDNA content in MiaPaCa-2 cells
Assay: Measurement of mtDNA content by qPCR
Assay type: cell-based
Conditions: MiaPaCa-2 (FIG. 11C)
Description: To assess mtDNA content, genomic DNA was isolated with QIAamp® DNA mini kit (Qiagen, Germantown, Md.) from MiaPaCa-2 cells. The mtDNA content was evaluated by co-amplifying a DNA fragment encoding mitochondrial 12S rRNA (forward primer: 5′-[…]-3′; reverse primer: 5′-TGCGCTTACTTTGTAG CCTTCAT-3′) and a DNA fragment encoding the nuclear 18S rRNA (forward primer: 5′-CCCTGCC CTTTGTACACACC-3′; reverse primer: 5′-GATCCGAGGGCCTCACTA-3′). (Vadrot et al., 2012) Real-time qPCR was performed on Viia7 cycler (Applied Biosystems). Amplifications were monitored and analyzed by measuring the intercalation of the fluorescent dye from Fast SYBR® Green Master Mix (Applied Biosystems). Relative mtDNA contents were calculated using 18S rRNA as gene reference.

O=C1C(Nc2ccc(-c3ccccc3)cc2)=CC(=O)c2ncncc21 [QD325, 6-([1,1′-biphenyl]-4-ylamino)quinazoline-5,8-dione]
relative levels of mtDNA over time: decreased time dependently
